Measured values reported in patent US8258114B2, “Modulation of glucose-6-phosphatase translocase expression” (Isis Pharmaceuticals, Inc., priority 2004, dated 2012).
Oligonucleotides are written 5' to 3', each unit as a sugar letter and its base; * is a phosphorothioate linkage, no mark a phosphodiester; rarer units and linkages stand in square brackets, end groups in braces. Plain capitals give the bases only. e = 2'-O-(2-methoxyethyl) (MOE); [5mC] = 5-methylcytosine; d = 2'-deoxy (DNA)

system: human glucose-6-phosphatase translocase mRNA; test: Antisense inhibition of human glucose-6-phosphatase translocase mRNA in HepG2 cells (Table 11); format: cell-based; set-up: concentration or dose not given beside the values; details: LIPOFECTIN, mRNA by real-time PCR
In short: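 HepG2 cells at 65-75% confluency transfected with 2′-MOE gapmer oligonucleotides using LIPOFECTIN (2.5 or 3 μg/mL per 100 nM oligo) for 4-7 h and harvested 16-24 h later. Target mRNA measured by RT real-time PCR and normalized to GAPDH or RiboGreen total RNA.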

In order of falling “% Inhib” value:
1. CCACCTATATCCAACTGCGC (e[5mC]*e[5mC]*eA*e[5mC]*e[5mC]*dT*dA*dT*dA*dT*d[5mC]*d[5mC]*dA*dA*d[5mC]*eT*eG*e[5mC]*eG*e[5mC]; antisense) [ISIS 194839]  75%
2. AGGGTGCTCTCCTCCTTCAA (eA*eG*eG*eG*eT*dG*d[5mC]*dT*d[5mC]*dT*d[5mC]*d[5mC]*dT*d[5mC]*d[5mC]*eT*eT*e[5mC]*eA*eA; antisense) [ISIS 194855]  66%
3. TGACTGCAGAAGTTTCCTGT (eT*eG*eA*e[5mC]*eT*dG*d[5mC]*dA*dG*dA*dA*dG*dT*dT*dT*e[5mC]*e[5mC]*eT*eG*eT; antisense) [ISIS 194838]  42%
4. CCCACTGACAAACTTGCTGA (e[5mC]*e[5mC]*e[5mC]*eA*e[5mC]*dT*dG*dA*d[5mC]*dA*dA*dA*d[5mC]*dT*dT*eG*e[5mC]*eT*eG*eA; antisense) [ISIS 194850]  38%

system: human glucose-6-phosphatase translocase mRNA; test: Antisense inhibition of human glucose-6-phosphatase translocase mRNA in T-24 cells, real-time PCR (Table 4); format: cell-based; details: 100 nM oligonucleotide, LIPOFECTIN, mRNA by real-time PCR
Experimental: The transitional cell bladder carcinoma cell line T-24 was obtained from the American Type Culture Collection (ATCC) (Manassas, Va.). T-24 cells were routinely cultured in complete McCoy's 5A basal media (Invitrogen Life Technologies, Carlsbad, Calif.) supplemented with 10% fetal bovine serum (Invitrogen Life Technologies, Carlsbad, Calif.). Cells were routinely passaged by trypsinization and dilution when they reached approximately 90% confluence. Cells were seeded into 96-well plates (Falcon-Primaria #3872) at a density of approximately 4000-6000 cells/well for use in oligomeric compound transfection experiments. When cells reached 65-75% confluency, they were treated with oligonucleotide. […] This transfection mixture was incubated at room temperature for approximately 0.5 hours. For cells grown in 96-well plates, wells were washed once with 100 μL OPTI-MEMTM-1 and then treated with 130 μL of the transfection mixture. Cells grown in 24-well plates or other standard tissue culture plates are treated similarly, using appropriate volumes of medium and oligonucleotide. Cells are treated and data are obtained in duplicate or triplicate. After approximately 4-7 hours of treatment at 37° C., the medium containing the transfection mixture was replaced with fresh culture medium. Cells were harvested 16-24 hours after oligonucleotide treatment. […] Prior to quantitative PCR analysis, primer-probe sets specific to the target gene being measured were evaluated for their ability to be “multiplexed” with a GAPDH amplification reaction. After isolation the RNA is subjected to sequential reverse transcriptase (RT) reaction and real-time PCR, both of which are performed in the same well. RT and PCR reagents were obtained from Invitrogen Life Technologies (Carlsbad, Calif.). […] The RT reaction was carried out by incubation for 30 minutes at 48° C. Following a 10 minute incubation at 95° C. to activate the PLATINUM® Taq, 40 cycles of a two-step PCR protocol were carried out: 95° C. for 15 seconds (denaturation) followed by 60° C. for 1.5 minutes (annealing/extension). Gene target quantities obtained by RT, real-time PCR were normalized using either the expression level of GAPDH, a gene whose expression is constant, or by quantifying total RNA using RiboGreenTM (Molecular Probes, Inc. Eugene, Oreg.). GAPDH expression was quantified by RT, real-time PCR, by being run simultaneously with the target, multiplexing, or separately. Total RNA was quantified using RiboGreenTM RNA quantification reagent (Molecular Probes, Inc. Eugene, Oreg.). A series of oligomeric compounds was designed to target different regions of human glucose-6-phosphatase translocase, using published sequences cited in Table 1. All compounds in Table 4 are chimeric oligonucleotides (“gapmers”) 20 nucleotides in length, composed of a central “gap” region consisting of 10 2'-deoxynucleotides, which is flanked on both sides ([NT]) by five-nucleotide “wings”. The wings are composed of 2'-O-(2-methoxyethyl) nucleotides, also known as 2'-MOE nucleotides. The internucleoside (backbone) linkages are phosphorothioate throughout the oligonucleotide. All cytidine residues are 5-methylcytidines. The compounds were analyzed for their effect on gene target mRNA levels by quantitative real-time PCR as described in other examples herein, using the following primer-probe set designed to hybridize to human glucose-6-phosphatase translocase: Forward primer: [NT] (incorporated herein as SEQ ID NO: 24) Reverse primer: [NT] (incorporated herein as SEQ ID NO: 25) And the PCR probe was: […] (incorporated herein as SEQ ID NO: 26), where FAM is the fluorescent dye and TAMRA is the quencher dye. Data are from experiments in which T-24 cells were treated with 100 nM of the antisense oligonucleotides of the present invention using LIPOFECTINTM. A reduction in expression is expressed as percent inhibition in Table 4. If present, “N.D.” indicates “not determined”. The control oligomeric compound used was SEQ ID NO: 11. […]

In order of rising “% Inhib” value:
1. TCTCTTCCACCAATGATGGC (eT*e[5mC]*eT*e[5mC]*eT*dT*d[5mC]*d[5mC]*dA*d[5mC]*d[5mC]*dA*dA*dT*dG*eA*eT*eG*eG*e[5mC]; antisense) [ISIS 194841]  41%
2. TGTCCTTTCTCCTGGATAAG (eT*eG*eT*e[5mC]*e[5mC]*dT*dT*dT*d[5mC]*dT*d[5mC]*d[5mC]*dT*dG*dG*eA*eT*eA*eA*eG; antisense) [ISIS 194852]  44%
3. TGTTTCGTAGGAGGAAGAAG (eT*eG*eT*eT*eT*d[5mC]*dG*dT*dA*dG*dG*dA*dG*dG*dA*eA*eG*eA*eA*eG; antisense) [ISIS 194857]  44%
4. TTCCTGCTTGCCGCTCTCAC (eT*eT*e[5mC]*e[5mC]*eT*dG*d[5mC]*dT*dT*dG*d[5mC]*d[5mC]*dG*d[5mC]*dT*e[5mC]*eT*e[5mC]*eA*e[5mC]; antisense) [ISIS 194845]  50%
5. GATGAACCCCAAATCATCCT (eG*eA*eT*eG*eA*dA*d[5mC]*d[5mC]*d[5mC]*d[5mC]*dA*dA*dA*dT*d[5mC]*eA*eT*e[5mC]*e[5mC]*eT; antisense) [ISIS 194827]  55%
6. AGGGTGCTCTCCTCCTTCAA (eA*eG*eG*eG*eT*dG*d[5mC]*dT*d[5mC]*dT*d[5mC]*d[5mC]*dT*d[5mC]*d[5mC]*eT*eT*e[5mC]*eA*eA; antisense) [ISIS 194855]  57%
7. TCCTTGTCCAAAGGGATCTC (eT*e[5mC]*e[5mC]*eT*eT*dG*dT*d[5mC]*d[5mC]*dA*dA*dA*dG*dG*dG*eA*eT*e[5mC]*eT*e[5mC]; antisense) [ISIS 194842]  57%
8. TAACCAGTGGAGAGCACCCA (eT*eA*eA*e[5mC]*e[5mC]*dA*dG*dT*dG*dG*dA*dG*dA*dG*d[5mC]*eA*e[5mC]*e[5mC]*e[5mC]*eA; antisense) [ISIS 194833]  60%
9. GCTGACTGTCCTTTCTCCTG (eG*e[5mC]*eT*eG*eA*d[5mC]*dT*dG*dT*d[5mC]*d[5mC]*dT*dT*dT*d[5mC]*eT*e[5mC]*e[5mC]*eT*eG; antisense) [ISIS 194859]  62%
10. TGCCTACAAGGCCCCCAACT (eT*eG*e[5mC]*e[5mC]*eT*dA*d[5mC]*dA*dA*dG*dG*d[5mC]*d[5mC]*d[5mC]*d[5mC]*e[5mC]*eA*eA*e[5mC]*eT; antisense) [ISIS 194849]  65%
11. GCTGCGCCAGCTGTAGCTCT (eG*e[5mC]*eT*eG*e[5mC]*dG*d[5mC]*d[5mC]*dA*dG*d[5mC]*dT*dG*dT*dA*eG*e[5mC]*eT*e[5mC]*eT; antisense) [ISIS 194843]  66%
12. GGTTGCCAGGATAGGGCCCA (eG*eG*eT*eT*eG*d[5mC]*d[5mC]*dA*dG*dG*dA*dT*dA*dG*dG*eG*e[5mC]*e[5mC]*e[5mC]*eA; antisense) [ISIS 194846]  70%
13. TGACTGTCCTTTCTCCTGGA (eT*eG*eA*e[5mC]*eT*dG*dT*d[5mC]*d[5mC]*dT*dT*dT*d[5mC]*dT*d[5mC]*e[5mC]*eT*eG*eG*eA; antisense) [ISIS 194834]  71%
14. GGACTCTCTTCACTCAGCCT (eG*eG*eA*e[5mC]*eT*d[5mC]*dT*d[5mC]*dT*dT*d[5mC]*dA*d[5mC]*dT*d[5mC]*eA*eG*e[5mC]*e[5mC]*eT; antisense) [ISIS 194825]  73%
15. GGTGCGGATGTTTCGTAGGA (eG*eG*eT*eG*e[5mC]*dG*dG*dA*dT*dG*dT*dT*dT*d[5mC]*dG*eT*eA*eG*eG*eA; antisense) [ISIS 194826]  76%
16. GTCAAGGGTCATTAGTGCCC (eG*eT*e[5mC]*eA*eA*dG*dG*dG*dT*d[5mC]*dA*dT*dT*dA*dG*eT*eG*e[5mC]*e[5mC]*e[5mC]; antisense) [ISIS 194854]  80%
17. TAGTGGTACAGTGAGAATGA (eT*eA*eG*eT*eG*dG*dT*dA*d[5mC]*dA*dG*dT*dG*dA*dG*eA*eA*eT*eG*eA; antisense) [ISIS 194848]  81%
18. TGCGCCTAGTGGTACAGTGA (eT*eG*e[5mC]*eG*e[5mC]*d[5mC]*dT*dA*dG*dT*dG*dG*dT*dA*d[5mC]*eA*eG*eT*eG*eA; antisense) [ISIS 194829]  82%
19. CCACCTATATCCAACTGCGC (e[5mC]*e[5mC]*eA*e[5mC]*e[5mC]*dT*dA*dT*dA*dT*d[5mC]*d[5mC]*dA*dA*d[5mC]*eT*eG*e[5mC]*eG*e[5mC]; antisense) [ISIS 194839]  83%
20. CCCACTGACAAACTTGCTGA (e[5mC]*e[5mC]*e[5mC]*eA*e[5mC]*dT*dG*dA*d[5mC]*dA*dA*dA*d[5mC]*dT*dT*eG*e[5mC]*eT*eG*eA; antisense) [ISIS 194850]  88%
21. TGACTGCAGAAGTTTCCTGT (eT*eG*eA*e[5mC]*eT*dG*d[5mC]*dA*dG*dA*dA*dG*dT*dT*dT*e[5mC]*e[5mC]*eT*eG*eT; antisense) [ISIS 194838]  91%
